Reference: US20250230193A1, “CYCLIC COMPOUND HAVING SELECTIVE KRAS INHIBITORY EFFECT ON HRAS AND NRAS” (CHUGAI SEIYAKU KABUSHIKI KAISHA, priority 2022, published 2025)
Where a SMILES comes first, the peptide text is derived from it. Bridges are numbered along the chain shown (N, C = ends). [ ]: non-standard residue; d: D form. The star is where a group is joined. hPhe(3-Cl-4-CF3) = N[C@@H](CCc1ccc(C(F)(F)F)c(Cl)c1)C(=O)O; NEtPhe(4-Me) = CCN[C@@H](Cc1ccc(C)cc1)C(=O)O; NMeI = CC[C@H](C)[C@H](NC)C(=O)O; NMeD = CN[C@@H](CC(=O)O)C(=O)O; NMeL = CN[C@@H](CC(C)C)C(=O)O; Morpholide = C1CN(*)CCO1; Ac5c = NC1(C(=O)O)CCCC1; Sar = CNCC(=O)O

Legend:
[1] = biological target: GDP-bound NRAS wild-type protein (Homo sapiens, UniProt P01111); test: Binding to NRAS by surface plasmon resonance (SPR), Single Cycle Kinetics; conditions: SPR
Sequence of GDP-bound NRAS wild-type protein (P01111 whole entry): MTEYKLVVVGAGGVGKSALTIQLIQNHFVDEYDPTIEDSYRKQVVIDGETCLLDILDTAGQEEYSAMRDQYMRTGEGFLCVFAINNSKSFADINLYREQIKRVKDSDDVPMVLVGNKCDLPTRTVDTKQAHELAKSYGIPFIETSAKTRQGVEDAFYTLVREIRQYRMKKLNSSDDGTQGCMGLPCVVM

[2] = biological target: GDP-bound HRAS wild-type protein (Homo sapiens, UniProt P01112); test: Binding to HRAS by surface plasmon resonance (SPR), Single Cycle Kinetics; conditions: SPR
Sequence of GDP-bound HRAS wild-type protein (P01112 whole entry): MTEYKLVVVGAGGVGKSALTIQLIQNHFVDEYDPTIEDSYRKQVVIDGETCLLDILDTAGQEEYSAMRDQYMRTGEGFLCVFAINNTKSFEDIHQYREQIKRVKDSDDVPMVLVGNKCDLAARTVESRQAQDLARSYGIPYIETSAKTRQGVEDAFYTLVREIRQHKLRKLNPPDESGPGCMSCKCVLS

[3] = KD ratio, GDP-bound NRAS wild-type vs GDP-bound KRAS wild-type
[4] = KD ratio, GDP-bound HRAS wild-type vs GDP-bound KRAS wild-type
[5] = GDP-bound NRAS wild-type vs GDP-bound KRAS wild-type
[6] = GDP-bound HRAS wild-type vs GDP-bound KRAS wild-type

Compound: CCO[C@@H]1C[C@H]2C(=O)NC3(CCC3)C(=O)N(C)[C@@H](C3CCCC3)C(=O)N(C)[C@H](C(=O)N(C)C)CC(=O)N(C)[C@@H](CC)C(=O)N[C@@H]([C@@H](C)CC)C(=O)N(C)CC(=O)N(C)[C@H]3CCCCCN(C3=O)[C@@H](Cc3ccc(C(F)(F)F)cc3)C(=O)N(C)CC(=O)N[C@@H](CCc3cc(F)c(C(F)(F)F)c(F)c3)C(=O)N2C1 [PP0663]
- NRAS/KRAS (ratio of KD value with respect to GDP-bound NRAS wild-type protein to KD value with respect to KRAS) ([1]; KD ratio NRAS/KRAS): B (a compound having 3 or more and less than 10 is denoted as B)
- HRAS/KRAS (ratio of KD value with respect to GDP-bound HRAS wild-type protein to KD value with respect to KRAS) ([2]; KD ratio HRAS/KRAS): B (a compound having 3 or more and less than 10 is denoted as B)

Compound: CC[C@H](C)[C@@H]1NC(=O)[C@H](CC(C)C)N(C)C(=O)C[C@@H](C(=O)N2CCOCC2)N(C)C(=O)[C@H]([C@@H](C)CC)N(C)C(=O)C2(CCCC2)NC(=O)[C@@H]2CCCN2C(=O)[C@H](CCc2ccc(C(F)(F)F)c(Cl)c2)NC(=O)CN(C)C(=O)[C@H](Cc2ccc(C)cc2)N(CC)C(=O)CN(C)C(=O)CN(C)C1=O [PP0043] ([NMeL]I[Sar][Sar][NEtPhe(4-Me)][Sar][hPhe(3-Cl-4-CF3)]P[Ac5c][NMeI][NMeD]-Morpholide; lactam N-11)
- NRAS/KRAS (ratio of KD for GDP-bound NRAS wild-type to KD for KRAS) ([1]; KD ratio NRAS/KRAS): C (A compound having a KD ratio of 0.1 or more and less than 3 is denoted as C)
- HRAS/KRAS (ratio of KD for GDP-bound HRAS wild-type to KD for KRAS) ([2]; KD ratio HRAS/KRAS): C (A compound having a KD ratio of 0.1 or more and less than 3 is denoted as C)

Compound: C#CC[C@H]1C(=O)N[C@@H]([C@@H](C)CC)C(=O)N(C)CC(=O)N(C)[C@H]2C/C=C\CCN(C2=O)[C@@H](Cc2ccc(C(F)(F)F)cc2)C(=O)N(C)CC(=O)N[C@@H](CCc2cc(F)c(C(F)(F)F)c(F)c2)C(=O)N2C[C@H](OCC)C[C@H]2C(=O)NC2(CCC2)C(=O)N(C)[C@@H](C2CCCC2)C(=O)N(C)[C@H](C(=O)N(C)C)CC(=O)N1C [PP1115]
- NRAS/KRAS (ratio of KD value with respect to NRAS to KD value with respect to KRAS) [1, 3]: A (a compound having 10 or more and less than 20 is denoted as A)
- HRAS/KRAS (ratio of KD value with respect to HRAS to KD value with respect to KRAS) [2, 4]: A (a compound having 10 or more and less than 20 is denoted as A)

Compound: CCO[C@@H]1C[C@H]2C(=O)NC3(CC(C)(C)C3)C(=O)N(C)[C@@H](C(CC)CC)C(=O)N(C)[C@H](C(=O)N(C)C)CC(=O)N(C)[C@@H](CC3CC3)C(=O)N[C@@H]([C@@H](C)CC)C(=O)N(C)CC(=O)N(C)[C@H]3C/C=C\CCN(C3=O)[C@@H](Cc3ccc(C)cc3)C(=O)N(C)CC(=O)N[C@@H](CCc3ccc(Cl)c(Cl)c3)C(=O)N2C1 [PP2182]
- NRAS/KRAS (ratio of KD value with respect to NRAS to KD value with respect to KRAS) [1, 5]: AA (a compound having 20 or more is denoted as AA)
- HRAS/KRAS (ratio of KD value with respect to HRAS to KD value with respect to KRAS) [2, 6]: A (a compound having 10 or more and less than 20 is denoted as A)

Compound: CC[C@H](C)[C@@H]1NC(=O)[C@H](CC(C)C)N(C)C(=O)C[C@@H](C(=O)N2CCOCC2)N(C)C(=O)[C@H](C2CCCC2)N(C)C(=O)C2(CCC2)NC(=O)[C@@H]2[C@H](O)CCN2C(=O)[C@H](CCc2cc(F)c(C(F)(F)F)c(F)c2)NC(=O)CN(C)C(=O)[C@H](Cc2ccc(C(F)(F)F)cc2)N2CCCC[C@@H](C2=O)N(C)C(=O)CN(C)C1=O [PP0870]
- NRAS/KRAS (ratio of KD value with respect to NRAS to KD value with respect to KRAS) [1, 3]: B (a compound having 3 or more and less than 10 is denoted as B)
- HRAS/KRAS (ratio of KD value with respect to HRAS to KD value with respect to KRAS) [2, 4]: B (a compound having 3 or more and less than 10 is denoted as B)

Compound: CCO[C@@H]1C[C@H]2C(=O)NC3(CC(C)(C)C3)C(=O)N(C)[C@@H](C3CCCC3)C(=O)N(C)[C@H](C(=O)N(C)CC)CC(=O)N(C)[C@@H](CC(F)F)C(=O)N[C@@H]([C@@H](C)CC)C(=O)N(C)CC(=O)N(C)[C@H]3C/C=C\CCN(C3=O)[C@@H](Cc3ccc(C(F)(F)F)cc3)C(=O)N(C)CC(=O)N[C@@H](CCc3ccc(C(F)(F)F)c(OC)c3)C(=O)N2C1 [PP1655]
- NRAS/KRAS (ratio of KD value for NRAS to KD value for KRAS) [1, 3]: A (a compound having 10 or more and less than 20 is denoted as A)
- HRAS/KRAS (ratio of KD value for HRAS to KD value for KRAS) [2, 4]: A (a compound having 10 or more and less than 20 is denoted as A)

Compound: CCO[C@@H]1C[C@H]2C(=O)NC3(CC(C)(C)C3)C(=O)N(C)[C@@H](C3CCCC3)C(=O)N(C)[C@H](C(=O)N(CC)CC)CC(=O)N(C)[C@@H](COC)C(=O)N[C@@H]([C@@H](C)CC)C(=O)N(C)CC(=O)N(C)[C@H]3C/C=C\CCN(C3=O)[C@@H](Cc3ccc(C)cc3)C(=O)N(C)CC(=O)N[C@@H](CCc3cc(F)c(C(F)(F)F)c(F)c3)C(=O)N2C1 [PP2403]
- NRAS/KRAS (ratio of KD value with respect to NRAS to KD value with respect to KRAS) [1, 5]: A (a compound having 10 or more and less than 20 is denoted as A)
- HRAS/KRAS (ratio of KD value with respect to HRAS to KD value with respect to KRAS) [2, 6]: A (a compound having 10 or more and less than 20 is denoted as A)
